In PubChem BioAssay AID1259407 (Chemical Carcinogenesis Research Information System (CCRIS), 2018):
Calls of active or inactive are those of the source. The rule behind the calls is not given here.

Test system: CCRIS mutagenicity, Ames/micronucleus/aberration tests
Assay: CCRIS mutagenicity studies
[1] = Test System: AMES SALMONELLA TYPHIMURIUM, Strain/Indicator: TA1535, Metabolic Activation: NONE, Method: PREINCUBATION
[2] = Test System: AMES SALMONELLA TYPHIMURIUM, Strain/Indicator: TA1537, Metabolic Activation: NONE, Method: PREINCUBATION
[3] = Test System: AMES SALMONELLA TYPHIMURIUM, Strain/Indicator: TA1538, Metabolic Activation: NONE, Method: PREINCUBATION
[4] = Test System: AMES SALMONELLA TYPHIMURIUM, Strain/Indicator: TA98, Metabolic Activation: NONE, Method: STANDARD PLATE
[5] = Test System: AMES SALMONELLA TYPHIMURIUM, Strain/Indicator: TA100, Metabolic Activation: NONE, Method: PREINCUBATION

For Nc1ccc2nc3ccccc3cc2c1, the mutagenic call [1] was “inactive; negative”, the mutagenic call (Test System: AMES SALMONELLA TYPHIMURIUM, Strain/Indicator: TA1535, Metabolic Activation: RAT, LIVER, S-9, TETRACHLOROBIPHENYL, Method: PREINCUBATION) was “active; positive” and the mutagenic call [2] was “active; positive”. The mutagenic call (Test System: AMES SALMONELLA TYPHIMURIUM, Strain/Indicator: TA1537, Metabolic Activation: RAT, LIVER, S-9, TETRACHLOROBIPHENYL, Method: PREINCUBATION) was “active; positive”, the mutagenic call [3] was “inactive; negative” and the mutagenic call (Test System: AMES SALMONELLA TYPHIMURIUM, Strain/Indicator: TA1538, Metabolic Activation: RAT, LIVER, S-9, TETRACHLOROBIPHENYL, Method: PREINCUBATION) was “active; positive”. For the same compound, the mutagenic call (Test System: AMES SALMONELLA TYPHIMURIUM, Strain/Indicator: TA1975, Metabolic Activation: RAT, LIVER, S-9, TETRACHLOROBIPHENYL, Method: PREINCUBATION) was “inactive; negative”, the mutagenic call (Test System: AMES SALMONELLA TYPHIMURIUM, Strain/Indicator: TA1977, Metabolic Activation: NONE, Method: PREINCUBATION) was “inactive; negative” and the mutagenic call (Test System: AMES SALMONELLA TYPHIMURIUM, Strain/Indicator: TA1977, Metabolic Activation: RAT, LIVER, S-9, TETRACHLOROBIPHENYL, Method: PREINCUBATION) was “active; positive”. The mutagenic call (Test System: AMES SALMONELLA TYPHIMURIUM, Strain/Indicator: TA1978, Metabolic Activation: RAT, LIVER, S-9, TETRACHLOROBIPHENYL, Method: PREINCUBATION) was “active; positive”.
In the case of COC(=O)N[C@H]1[C@H](O[C@H]2[C@H](O)[C@@H](N)[C@H](O[C@H]3[C@H](O)[C@@H](N)[C@H](O)O[C@@H]3CO)O[C@@H]2CO)O[C@H](CO)[C@@H](O[C@@H]2O[C@H](CO)[C@@H](O[C@@H]3O[C@H](CO)[C@@H](O[C@@H]4O[C@H](CO)[C@@H](O[C@@H]5O[C@H](CO)[C@@H](O[C@@H]6O[C@H](CO)[C@@H](O[C@@H]7O[C@H](CO)[C@@H](O)[C@H](O)[C@H]7N)[C@H](O)[C@H]6N)[C@H](O)[C@H]5N)[C@H](O)[C@H]4N)[C@H](O)[C@H]3N)[C@H](O)[C@H]2N)[C@@H]1O, the mutagenic call (End Point: IN VIVO CHROMOSOMAL ABERRATIONS, Test System: BONE MARROW CELLS (LYMPHOCYTES), Species: MOUSE, Strain/Sex: ICR/MALE, Route: DRINKING WATER) is reported as “inactive; negative”, the mutagenic call (End Point: IN VIVO CHROMOSOMAL ABERRATIONS, Test System: BONE MARROW, Species: MOUSE, Strain/Sex: ICR/MALE, Route: DRINKING WATER) is reported as “inactive; negative” and the mutagenic call (End Point: IN VIVO CHROMOSOMAL ABERRATIONS, Test System: BONE MARROW, Species: MOUSE, Strain/Sex: ICR/PARENT, F1, F2, F3 GENERATIONS, Strain/Sex: ICR/PARENT, F1, F2, F3 GENERATIONS, Route: DRINKING WATER) is reported as “inactive; negative in all generations”. For the same compound, the mutagenic call (End Point: IN VIVO MICRONUCLEUS, Test System: BONE MARROW POLYCHROMATIC ERYTHROCYTES, Species: MOUSE, Strain/Sex: ICR/MALE, Route: DRINKING WATER) was “inactive; negative”.
With c1ccc2c(c1)-c1c(ccc3ccccc13)C1OC21 (stereo unspecified) the mutagenic call (Test System: AMES SALMONELLA TYPHIMURIUM, Strain/Indicator: TA98, Metabolic Activation: NONE, Method: PREINCUBATION (KCL-CONTAINING MEDIUM)) was “active; positive”, the mutagenic call (Test System: AMES SALMONELLA TYPHIMURIUM, Strain/Indicator: TA98, Metabolic Activation: NONE, Method: PREINCUBATION (KCL-FREE MEDIUM)) was “active; positive” and the mutagenic call (Test System: AMES SALMONELLA TYPHIMURIUM, Strain/Indicator: TA100, Metabolic Activation: NONE, Method: PREINCUBATION (KCL-CONTAINING MEDIUM)) was “active; positive”. The mutagenic call (Test System: AMES SALMONELLA TYPHIMURIUM, Strain/Indicator: TA100, Metabolic Activation: NONE, Method: PREINCUBATION (KCL-FREE MEDIUM)) was “active; positive”.
In the case of CCc1c2ccccc2cc2ccc3ccccc3c12, the mutagenic call (Test System: AMES SALMONELLA TYPHIMURIUM, Strain/Indicator: TA98, Method: STANDARD PLATE) is reported as “inactive; negative”, the mutagenic call (Test System: AMES SALMONELLA TYPHIMURIUM, Strain/Indicator: TA100, Metabolic Activation: RAT, LIVER, S-9, PHENOBARBITAL, Method: STANDARD PLATE) is reported as “inactive; negative” and the mutagenic call (Test System: AMES SALMONELLA TYPHIMURIUM, Strain/Indicator: TA100, Method: STANDARD PLATE) is reported as “inactive; negative”.
In the case of CC(C)COS(=O)(=O)c1ccccc1, the mutagenic call [4] is reported as “active; positive”, the mutagenic call (Test System: AMES SALMONELLA TYPHIMURIUM, Strain/Indicator: TA98, Metabolic Activation: RAT, LIVER, S-9, Method: STANDARD PLATE) is reported as “active; positive” and the mutagenic call (Test System: AMES SALMONELLA TYPHIMURIUM, Strain/Indicator: TA100, Metabolic Activation: RAT, LIVER, S-9, Method: STANDARD PLATE) is reported as “active; positive”.
For Cc1cc2c(c3ccc4ccccc4c13)[C@H]1O[C@H]1[C@@H](O)[C@@H]2O, the mutagenic call [5] was “inactive; negative”.
With CSCCC=O the mutagenic call (Test System: AMES SALMONELLA TYPHIMURIUM, Strain/Indicator: TA98, Metabolic Activation: NONE, Method: PREINCUBATION) was “inactive; negative”, the mutagenic call (Test System: AMES SALMONELLA TYPHIMURIUM, Strain/Indicator: TA98, Metabolic Activation: RAT LIVER S-9, AROCLOR 1254, Method: PREINCUBATION) was “inactive; negative” and the mutagenic call [5] was “inactive; negative”. The mutagenic call (Test System: AMES SALMONELLA TYPHIMURIUM, Strain/Indicator: TA100, Metabolic Activation: RAT LIVER S-9, AROCLOR 1254, Method: PREINCUBATION) was “inactive; negative”, the mutagenic call [1] was “inactive; negative” and the mutagenic call (Test System: AMES SALMONELLA TYPHIMURIUM, Strain/Indicator: TA1535, Metabolic Activation: RAT LIVER S-9, AROCLOR 1254, Method: PREINCUBATION) was “inactive; negative”. The mutagenic call [2] was “inactive; negative”, the mutagenic call (Test System: AMES SALMONELLA TYPHIMURIUM, Strain/Indicator: TA1537, Metabolic Activation: RAT LIVER S-9, AROCLOR 1254, Method: PREINCUBATION) was “inactive; negative” and the mutagenic call [3] was “inactive; negative”. The mutagenic call (Test System: AMES SALMONELLA TYPHIMURIUM, Strain/Indicator: TA1538, Metabolic Activation: RAT LIVER S-9, AROCLOR 1254, Method: PREINCUBATION) was “inactive; negative”, the mutagenic call (Test System: MOUSE LYMPHOMA, Strain/Indicator: L5178Y (TK+/TK-), Metabolic Activation: NONE, Method: SUSPENSION/PLATE) was “active; positive” and the mutagenic call (Test System: MOUSE LYMPHOMA, Strain/Indicator: L5178Y (TK+/TK-), Metabolic Activation: RAT LIVER S-9, AROCLOR 1254, Method: SUSPENSION/PLATE) was “active; positive”.
CNCCN(Cc1ccc(OC)cc1)c1ccccn1 was tested, and the mutagenic call (Test System: AMES SALMONELLA TYPHIMURIUM, Strain/Indicator: TA97, Metabolic Activation: NONE, Method: STANDARD PLATE) was “inactive; negative”, the mutagenic call (Test System: AMES SALMONELLA TYPHIMURIUM, Strain/Indicator: TA97, Metabolic Activation: RAT, LIVER, S-9, AROCLOR 1254, Method: STANDARD PLATE) was “inactive; negative” and the mutagenic call [4] was “inactive; negative”. The mutagenic call (Test System: AMES SALMONELLA TYPHIMURIUM, Strain/Indicator: TA98, Metabolic Activation: RAT, LIVER, S-9, AROCLOR 1254, Method: STANDARD PLATE) was “inactive; negative”, the mutagenic call (Test System: AMES SALMONELLA TYPHIMURIUM, Strain/Indicator: TA100, Metabolic Activation: NONE, Method: STANDARD PLATE) was “inactive; negative” and the mutagenic call (Test System: AMES SALMONELLA TYPHIMURIUM, Strain/Indicator: TA100, Metabolic Activation: RAT, LIVER, S-9, AROCLOR 1254, Method: STANDARD PLATE) was “inactive; negative”. The mutagenic call (Test System: AMES SALMONELLA TYPHIMURIUM, Strain/Indicator: TA102, Metabolic Activation: NONE, Method: STANDARD PLATE) was “inactive; negative” and the mutagenic call (Test System: AMES SALMONELLA TYPHIMURIUM, Strain/Indicator: TA102, Metabolic Activation: RAT, LIVER, S-9, AROCLOR 1254, Method: STANDARD PLATE) was “inactive; negative”.
In the case of O=C(N=c1sn(C(=O)c2ccc([N+](=O)[O-])cc2)c2ccccc12)c1ccc([N+](=O)[O-])cc1, the mutagenic call (Test System: AMES SALMONELLA TYPHIMURIUM, Strain/Indicator: TA100, Metabolic Activation: S-9, Method: STANDARD PLATE) is reported as “active; positive”.
